Reference: patent publication US10836756B2, “Crystalline salts of peptide epoxyketone immunoproteasome inhibitor” (KEZAR LIFE SCIENCES, priority 2016, dated 2020)
Structures can show the parent of a compound that is named as a salt. Where two headings read alike, the source gives them in different places.

Assays:
[1] = Solubility of compound G (amorphous) and its monomaleate salt (crystalline) in water, buffers and solvents; type: physicochemical
[2] = Stability of Form A and its freebase, one month storage; type: physicochemical; conditions: for % Decomposition: 1 month
Protocol: The stability of Form A and its freebase was tested at ambient conditions (25° C. and 40% relative humidity, “RH”), and at elevated temperature and humidity (40° C. and 75% RH) over the duration of one month.

[3] = Olovson et al. 1986, Kumar et al. 2013; cited from earlier work
[4] = pKa of the monomaleate salt; type: physicochemical

SMILES: COc1ccc([C@@H](O)[C@H](NC(=O)[C@H](C)NC(=O)CN2CCOCC2)C(=O)N[C@@H](CC2=CCCC2)C(=O)[C@@]2(C)CO2)cc1 [compound G, (2S,3R)—N-[(2S)-3-(cyclopent-1-en-1-yl)-1-[(2R)-2-methyloxiran-2-yl]-1-oxopropan-2-yl]-3-hydroxy-3-(4-methoxyphenyl)-2-[(2S)-2-[2-(morpholin-4-yl)acetamido]propanamido]propanamide]
- solubility ([1]; 25 mM Na citrate buffer, pH 4.9, aqueous buffer, 25 mM Na Citrate, pH 4.9, amorphous, read-out: Solubility): 46000 µg/mL
- solubility ([1]; 25 mM Na citrate buffer, pH 5.1, aqueous buffer, 25 mM Na Citrate, pH 5.1, amorphous, read-out: Solubility): 32000 µg/mL
- solubility ([1]; 25 mM Na citrate buffer, pH 5.2, aqueous buffer, 25 mM Na Citrate, pH 5.2, amorphous, read-out: Solubility): 24800 µg/mL
- solubility ([1]; 25 mM Na citrate buffer, pH 5.4, aqueous buffer, 25 mM Na Citrate, pH 5.4, amorphous, read-out: Solubility): 19500 µg/mL
- solubility ([1]; 25 mM Na citrate buffer, pH 5.8, aqueous buffer, 25 mM Na Citrate, pH 5.8, amorphous, read-out: Solubility): 11200 µg/mL
- solubility ([1]; 25 mM Na citrate buffer, pH 6.3, aqueous buffer, 25 mM Na Citrate, pH 6.3, amorphous, read-out: Solubility): 9800 µg/mL
- solubility ([1]; 25 mM Na citrate buffer, pH 6.8, aqueous buffer, 25 mM Na Citrate, pH 6.8, amorphous, read-out: Solubility): 8800 µg/mL
- solubility ([1]; 0.9% saline, pH 7.6, saline or isotonic, 0.9% saline, pH 7.6, amorphous, read-out: Solubility): 9400 µg/mL
- solubility ([1]; 10% EtOH, aqueous with cosolvent or surfactant or cyclodextrin, EtOH, 10%, amorphous, read-out: Solubility): 13700 µg/mL
- solubility ([1]; 10% NMP, aqueous with cosolvent or surfactant or cyclodextrin, NMP, 10%, amorphous, read-out: Solubility): 28800 µg/mL
- solubility ([1]; 10% PEG 400, aqueous with cosolvent or surfactant or cyclodextrin, PEG 400, 10%, amorphous, read-out: Solubility): 11800 µg/mL
- solubility ([1]; 10% PG, aqueous with cosolvent or surfactant or cyclodextrin, PG, 10%, amorphous, read-out: Solubility): 12100 µg/mL
- solubility ([1]; 10% glycerol, aqueous with cosolvent or surfactant or cyclodextrin, glycerol, 10%, amorphous, read-out: Solubility): 8600 µg/mL
- solubility ([1]; 33% EtOH, aqueous with cosolvent or surfactant or cyclodextrin, EtOH, 33%, amorphous, read-out: Solubility): 20000 µg/mL
- solubility ([1]; 33% NMP, aqueous with cosolvent or surfactant or cyclodextrin, NMP, 33%, amorphous, read-out: Solubility): > 100000 µg/mL
- solubility ([1]; 33% PEG 400, aqueous with cosolvent or surfactant or cyclodextrin, PEG 400, 33%, amorphous, read-out: Solubility): 17400 µg/mL
- solubility ([1]; 33% PG, aqueous with cosolvent or surfactant or cyclodextrin, PG, 33%, amorphous, read-out: Solubility): 20500 µg/mL
- solubility ([1]; 33% glycerol, aqueous with cosolvent or surfactant or cyclodextrin, glycerol, 33%, amorphous, read-out: Solubility): 5800 µg/mL
- solubility ([1]; 67% EtOH, aqueous with cosolvent or surfactant or cyclodextrin, EtOH, 67%, amorphous, read-out: Solubility): > 100000 µg/mL
- solubility ([1]; 67% NMP, aqueous with cosolvent or surfactant or cyclodextrin, NMP, 67%, amorphous, read-out: Solubility): > 100000 µg/mL
- solubility ([1]; 67% PEG 400, aqueous with cosolvent or surfactant or cyclodextrin, PEG 400, 67%, amorphous, read-out: Solubility): > 50000 µg/mL
- solubility ([1]; 67% PG, aqueous with cosolvent or surfactant or cyclodextrin, PG, 67%, amorphous, read-out: Solubility): > 100000 µg/mL
- solubility ([1]; 67% glycerol, aqueous with cosolvent or surfactant or cyclodextrin, glycerol, 67%, amorphous, read-out: Solubility): 5400 µg/mL
- solubility ([1]; 100% EtOH, organic solvent or mixture, EtOH, 100%, amorphous, read-out: Solubility): > 100000 µg/mL
- solubility ([1]; 100% NMP, organic solvent or mixture, NMP, 100%, amorphous, read-out: Solubility): > 100000 µg/mL
- solubility ([1]; 100% PEG 400, organic solvent or mixture, PEG 400, 100%, amorphous, read-out: Solubility): > 50000 µg/mL
- solubility ([1]; 100% PG, organic solvent or mixture, PG, 100%, amorphous, read-out: Solubility): > 100000 µg/mL
- solubility ([1]; PBS, pH 7.2, aqueous buffer, PBS, pH 7.2, amorphous, read-out: Solubility): 7600 µg/mL
- solubility ([1]; glycerol, 100%, amorphous): not soluble
- solubility ([1]; water, pH 7.4, water, Water, pH 7.4, amorphous, read-out: Solubility): 8900 µg/mL
- solubility ([1]; water, read-out: solubility in water): 8900 µg/mL
- % Decomposition ([2]; 25° C./40% RH, lot 1): 1.9%
- % Decomposition ([2]; 25° C./40% RH, lot 2): 1.6%
- % Decomposition ([2]; 25° C./40% RH, lot 3): 1.4%
- % Purity at 1 Month ([2]; 25° C./40% RH, lot 1 (purity at t = 0 95.1)): 93.2%
- % Purity at 1 Month ([2]; 25° C./40% RH, lot 2 (purity at t = 0 85.6)): 84.0%
- % Purity at 1 Month ([2]; 25° C./40% RH, lot 3 (purity at t = 0 93.7)): 92.3%
- stability at elevated temperature and humidity (in words) ([2]; 40° C. and 75% RH, one month): rapid decomposition
- % Decomposition ([2]; 40° C./75% RH, lot 1): 67.5%
- % Decomposition ([2]; 40° C./75% RH, lot 2): 28.8%
- % Decomposition ([2]; 40° C./75% RH, lot 3): 21.1%
- % Purity at 1 Month ([2]; 40° C./75% RH, lot 1 (purity at t = 0 95.1)): 92.3%
- % Purity at 1 Month ([2]; 40° C./75% RH, lot 2 (purity at t = 0 85.6)): 92.3%
- % Purity at 1 Month ([2]; 40° C./75% RH, lot 3 (purity at t = 0 93.7)): 72.5%

SMILES: C=CCc1ccccc1OCC(O)CNC(C)C (stereo not drawn) [alprenolol]
- solubility of the maleate salt compared to other counterions, such as fumarate [3]: decreased solubility

SMILES: COc1ccc([C@@H](O)[C@H](NC(=O)[C@H](C)NC(=O)CN2CCOCC2)C(=O)N[C@@H](CC2=CCCC2)C(=O)[C@@]2(C)CO2)cc1 [monomaleate salt of compound G]
- pKa [4]: 5
- solubility ([1]; 2-methyltetrahydrofuran, organic solvent or mixture, 2-Methyltetrahydrofuran, crystalline, read-out: Solubility): 1760 µg/mL
- solubility ([1]; acetone, organic solvent or mixture, Acetone, crystalline, read-out: Solubility): 3190 µg/mL
- solubility ([1]; acetonitrile, organic solvent or mixture, Acetonitrile (ACN), crystalline, read-out: Solubility): 1300 µg/mL
- solubility ([1]; aqueous medium, aqueous, read-out: aqueous solubility): > 100000 µg/mL
- solubility ([1]; dichloromethane, organic solvent or mixture, Dichloromethane (DCM), crystalline, read-out: Solubility): 210 µg/mL
- solubility ([1]; ethanol, organic solvent or mixture, Ethanol (EtOH), crystalline, read-out: Solubility): 6970 µg/mL
- solubility ([1]; ethyl acetate, organic solvent or mixture, Ethyl acetate (EA), crystalline, read-out: Solubility): 470 µg/mL
- solubility ([1]; isopropanol, organic solvent or mixture, Isopropanol (IPA), crystalline, read-out: Solubility): 3280 µg/mL
- solubility ([1]; isopropyl acetate, organic solvent or mixture, Isopropyl acetate (IPAc), crystalline, read-out: Solubility): 130 µg/mL
- solubility ([1]; methanol, organic solvent or mixture, Methanol (MeOH), crystalline, read-out: Solubility): 42100 µg/mL
- solubility ([1]; methyl tert-butyl ether, organic solvent or mixture, Methyl tert-butyl ether (MTBE), crystalline, read-out: Solubility): 170 µg/mL
- solubility ([1]; tetrahydrofuran, organic solvent or mixture, Tetrahydrofuran (THF), crystalline, read-out: Solubility): 1960 µg/mL
- solubility ([1]; toluene, organic solvent or mixture, Toluene, crystalline, read-out: Solubility): 20 µg/mL
- solubility ([1]; water, ambient temperature (e.g., 20° C. to 25° C.), read-out: solubility in water): > 100000 µg/mL
